The results in this text go back to patent US20100297109A1, “METHODS FOR INHIBITING FASCIN” (Cornell University, priority 2007, published 2010).

Experiment [1] deals with T1, fascin (Homo sapiens, UniProt Q16658). Type of experiment: biochemical. On the set-up: GST (N); made in house; host or cells: Escherichia coli BL21. Particulars: fluorescence microscopy. As to the method:
Whole cell lysates from 4T1 mouse breast tumor cells were made. After preclearing the cell lysate with immobilized neutravidin biotin binding protein (Pierce, IL, USA) to remove biotin and avidin-binding proteins, the cell lysates were loaded to a column packed with the biotin-labeled macroketone (conjugated to neutravidin beads). A control column packed with free biotin and neutravidin beads was run side-by-side. After washing the column with 10 bed volumes of lysis buffer with 300 mM NaCl, the bound proteins were eluted with 0.1 M Glycine-HCl at pH 2.8 according to the manufacturer's instruction. […] Protein Expression and Purification. Recombinant GST-fascin fusion protein was produced in BL21 Escherichia coli. A 1-liter culture was grown to an A600 reading of 1.0 and then induced by addition of 0.3 mM isopropyl 1-thio-D-galactopyranoside (IPTG) for 12 hours at 25° C. Cells were flash frozen and then lysed by sonication in Tris-buffered saline. The supernatant was then incubated with glutathione-Sepharose for 2 h at 4° C. After extensive washing, GST-fascin was eluted and concentrated with a Centricon Plus-20 (Millipore). To remove the GST tag from the fusion protein, beads were incubated with thrombin overnight at 4° C. The supernatant was collected and concentrated. […] Actin bundling activity was measured by low speed centrifugation assay and fluorescence microscopy. […]

Experiment [2] deals with T1, fascin. As to the kind of experiment: Chamber migration of fascin siRNA-treated 4T1 cells rescued with human fascin. As to conditions: human fascin in fascin siRNA-treated 4T1 cells. Type of experiment: cell-based. On the set-up: expressed in transfected cells; host or cells: 4T1 mouse mammary tumor cells treated with mouse fascin siRNA 2. As for the experimental part: Boyden Chamber Cell Migration Assay. Cells (5×10^4) suspended in starvation medium were added to the upper chamber of an insert (6.5 mm diameter, 8-micrometer pore size, Becton Dickenson), and the insert was placed in a 24-well dish containing starvation medium with or without 10% FBS (Yang et al. 2005, Shan et al. 2006). When used, inhibitors were added to both chambers. Migration assays were carried out for 4-6 hours and cells were fixed with 3.7% formaldehyde. Cells were stained with crystal violet staining solution, and cells on the upper side of the insert were removed with a cotton swab. Three randomly selected fields (10× objectives) on the lower side of the insert were photographed, and the migrated cells were counted. The migration was expressed as either the average number of migrated cells in a field or as percentage of migrated cells in positive control. Percentage was calculated with the formula P=100×(M−Mnc)/Mpc, where P is the percentage of migrated cells, M is the number of migrated cells, Mnc is the number of migrated cells in negative controls, and Mpc is the number of migrated cells in positive controls.

Experiment [3] concerns the target T2, fascin His474 to Ala mutant (Homo sapiens, UniProt Q16658, H474A).
T2 construct: GST (N, cleaved yes); made in house; host or cells: Escherichia coli BL21 (pGEX4T-Fascin1)
Nature of the experiment: Actin bundling assay with fascin H474A mutant. Type of experiment: biochemical. The source says: Identification of fascin as the protein target of migrastatin analogs. Whole cell lysates from 4T1 mouse breast tumor cells were made. After preclearing the cell lysate with immobilized neutravidin biotin binding protein (Pierce, IL, USA) to remove biotin and avidin-binding proteins, the cell lysates were loaded to a column packed with the biotin-labeled macroketone (conjugated to neutravidin beads). A control column packed with free biotin and neutravidin beads was run side-by-side. After washing the column with 10 bed volumes of lysis buffer with 300 mM NaCl, the bound proteins were eluted with 0.1 M Glycine-HCl at pH 2.8 according to the manufacturer's instruction. […] A 1-liter culture was grown to an A600 reading of 1.0 and then induced by addition of 0.3 mM isopropyl 1-thio-D-galactopyranoside (IPTG) for 12 hours at 25° C. […] Actin bundling activity was measured by low speed centrifugation assay and fluorescence microscopy. […] Both supernatants and pellets were dissolved in an equivalent volume of SDS sample buffer, and the amount of actin was determined by SDS-PAGE. For fluorescence microscopy, monomeric G-actin was polymerized as described above. […] The samples were mounted between a slide and a coverslip coated with poly-lysine and imaged by fluorescence microscopy. […] Both supernatants and pellets were dissolved in an equivalent volume of SDS sample buffer and analyzed by SDS-PAGE. […]

SMILES strings stand for the structures.

`COC1C=CCCCCC(=O)CCC(C)=CC(C)C1O` (stereo not shown) [macroketone, Migrastatin ketone]: the “inhibition of formation of F-actin bundles” value in experiment [1] (fascin present) is more than 80%. For the same compound, the “ability of fascin to bundle actin polymers” value in experiment [1] (preincubation of fascin) is on record as “decreased the ability of fascin to bundle actin polymers”. Further, in experiment [2], the “sensitivity of rescued migration” value is reported as “sensitive”. Besides, the “sensitivity of actin bundling activity of fascin mutant” value in experiment [3] is “resistant”.
